This passage reports EC50 results from patent publication US10654834B2 (Venenum Biodesign, LLC, priority 2016, dated 2020).

For orientation: EC50 means the concentration needed to bring the measured effect to its halfway point.

Each structure is given as a SMILES string. A value given as a limit tells only on which side of the number the result lay.

The target in one assay is T1, human TGR5 receptor (Homo sapiens, UniProt Q8TDU6).
T1 construct: host or cells: CHO-K1 (hTGR5-CHO)
T1 sequence (Q8TDU6 1-330): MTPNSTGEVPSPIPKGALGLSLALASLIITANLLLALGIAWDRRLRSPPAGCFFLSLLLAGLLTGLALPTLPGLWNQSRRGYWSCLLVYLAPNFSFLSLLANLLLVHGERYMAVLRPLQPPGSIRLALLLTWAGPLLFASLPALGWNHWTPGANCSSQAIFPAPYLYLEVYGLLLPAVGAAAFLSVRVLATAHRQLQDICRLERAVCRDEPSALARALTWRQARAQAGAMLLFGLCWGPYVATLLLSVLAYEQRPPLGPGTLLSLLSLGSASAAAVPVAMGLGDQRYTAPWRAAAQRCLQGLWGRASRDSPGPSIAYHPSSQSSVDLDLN
Put plainly: Human TGR5 cAMP production assay (hTGR5-CHO cells, DiscoveRx cAMP XS+ kit). Format: cell-based. The note with it: luminescent cAMP assay, read-out: Human TGR5 Lum. cAMP Activity (EC50). In outline: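 EC50 values come from luminescent enzyme-complementation cAMP detection, read after overnight incubation. Beforehand, hTGR5-expressing CHO-K1 cells with IBMX and anti-cAMP antibody were exposed 1 h at room temperature to serially diluted (half-log) compounds.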
In general terms: Cyclic AMP is a second messenger, typically raised through Gs and lowered through Gi signalling.

For another assay, the target named is T2, mouse TGR5 receptor (Mus musculus, UniProt Q80SS6).
T2 construct: host or cells: HEK293-EBNA (293 c18, ATCC CRL10852)
T2 sequence (Q80SS6 1-329): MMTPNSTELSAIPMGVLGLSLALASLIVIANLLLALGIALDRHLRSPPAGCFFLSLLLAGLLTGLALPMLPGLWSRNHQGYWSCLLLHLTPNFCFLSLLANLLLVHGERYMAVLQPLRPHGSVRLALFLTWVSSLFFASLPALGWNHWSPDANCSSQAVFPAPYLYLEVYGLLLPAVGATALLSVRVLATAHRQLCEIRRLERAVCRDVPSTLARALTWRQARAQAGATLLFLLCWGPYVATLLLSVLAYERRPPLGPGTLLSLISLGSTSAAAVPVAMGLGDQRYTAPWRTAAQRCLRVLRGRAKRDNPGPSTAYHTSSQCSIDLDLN
Description: Mouse TGR5 HTRF cAMP production assay (HEK293-EBNA cells, Cisbio cAMP HiRange kit). It counts as cell-based. The note with it: HEK293-EBNA cells overexpressing mouse TGR5, HTRF cAMP assay. In outline: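 cAMP accumulation was read by competitive HTRF after 1 h room-temperature compound treatment, with a further 1 h conjugate incubation. Cells were mouse TGR5-overexpressing HEK293-EBNA in serum-free DMEM plus 500 μM IBMX. Compounds ran as 12-point half-log series in duplicate, and EC50 values were reported.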
(In general: TR-FRET usually uses a lanthanide donor and a delayed reading to cut background.)

As for `COC(=O)[C@@H](N)CCCCNC(=O)NCCC1CCN(c2cc(N3CC[C@H]3C(=O)NCCc3ccc(C#N)cc3)nc(C(F)(F)F)n2)CC1` [Compound 274, (S)-methyl 2-amino-6-(3-(2-(1-(6-((S)-2-((4-cyanophenethyl)carbamoyl)azetidin-1-yl)-2-(trifluoromethyl)pyrimidin-4-yl)piperidin-4-yl)ethyl)ureido)hexanoate], the EC50 on human TGR5 receptor and at mouse TGR5 receptor was under 0.1 µM in each case.

Consider `N[C@@H]1C[C@@H](C(=O)NCCc2ccc(C(F)(F)F)cc2)N(c2cc(N3CCC(CCNC(=O)NCCC(=O)O)CC3)nc(C(F)(F)F)n2)C1` [Compound 375, 3-(3-(2-(1-(6-((2S,4R)-4-amino-2-((4-(trifluoromethyl)phenethyl)carbamoyl)pyrrolidin-1-yl)-2-(trifluoromethyl)pyrimidin-4-yl)piperidin-4-yl)ethyl)ureido)propanoic acid], for which the EC50 is 1 to 30 µM at human TGR5 receptor and 0.1 to 0.999 µM on mouse TGR5 receptor.

Turning to `CN(C)CCC1CCN(c2cc(N3CCC[C@H]3C(=O)NCCc3ccc(C#N)cc3)nc(C(F)(F)F)n2)CC1` [Compound 21], the figures for the EC50 at human TGR5 receptor and on mouse TGR5 receptor were under 0.1 µM and 0.1 to 0.999 µM, respectively.

In the case of `N#Cc1ccc(CCNC(=O)[C@@H]2CCCN2c2cc(N3CCC(CCCNC(=O)NCS(=O)(=O)O)CC3)cc(C(F)(F)F)n2)cc1` [Compound 201, (S)-(3-(3-(1-(2-(2-((4-cyanophenethyl)carbamoyl)pyrrolidin-1-yl)-6-(trifluoromethyl)pyridin-4-yl)piperidin-4-yl)propyl)ureido)methanesulfonic acid], the figures for the half-maximal effective concentration (EC50) on human TGR5 receptor and on mouse TGR5 receptor were 0.1 to 0.999 µM and under 0.1 µM, respectively.

Take `N#Cc1ccc(CCNC(=O)[C@@H]2CCCN2c2cc(-c3ccc(CNC(=O)NCCS(=O)(=O)O)cc3)nc(C(F)(F)F)n2)cc1` [Compound 191, (S)-2-(3-(4-(6-(2-((4-cyanophenethyl)carbamoyl)pyrrolidin-1-yl)-2-(trifluoromethyl)pyrimidin-4-yl)benzyl)ureido)ethanesulfonic acid]: the EC50 was 0.1 to 0.999 µM on human TGR5 receptor and under 0.1 µM on mouse TGR5 receptor.

Turning to `N#Cc1ccc(CCNC(=O)[C@@H]2CCCN2c2cc(-c3ccc(COCC(=O)O)cc3)cc(C(F)(F)F)n2)cc1` [Compound 208, (S)-2-((4-(2-(2-((4-cyanophenethyl)carbamoyl)pyrrolidin-1-yl)-6-(trifluoromethyl)pyridin-4-yl)benzyl)oxy)acetic acid], the EC50 on human TGR5 receptor was 0.1 to 0.999 µM; on mouse TGR5 receptor, under 0.1 µM.

On to `N#Cc1ccc(CCNC(=O)[C@@H]2CCCN2c2cc(-c3ccc(CCC(=O)O)cc3)nc(C(F)(F)F)n2)cc1` [Compound 188, (S)-3-(4-(6-(2-((4-cyanophenethyl)carbamoyl)pyrrolidin-1-yl)-2-(trifluoromethyl)pyrimidin-4-yl)phenyl)propanoic acid], for which the EC50 on human TGR5 receptor is 0.1 to 0.999 µM; at mouse TGR5 receptor, under 0.1 µM.

`N#Cc1ccc(CCNC(=O)[C@@H]2CC(F)(F)CN2c2cc(N3CCC(CCNC(=O)NCCS(=O)(=O)O)CC3)nc(C(F)(F)F)n2)cc1` [Compound 216, (S)-2-(3-(2-(1-(6-(2-((4-cyanophenethyl)carbamoyl)-4,4-difluoropyrrolidin-1-yl)-2-(trifluoromethyl)pyrimidin-4-yl)piperidin-4-yl)ethyl)ureido)ethanesulfonic acid]: the EC50 on human TGR5 receptor and on mouse TGR5 receptor was 0.1 to 0.999 µM throughout.

For `N#Cc1ccc(CCNC(=O)[C@@H]2CCN2c2cc(N3CCC(CCN)CC3)nc(C(F)(F)F)n2)cc1` [Compound 246, (S)-1-(6-(4-(2-aminoethyl)piperidin-1-yl)-2-(trifluoromethyl)pyrimidin-4-yl)-N-(4-cyanophenethyl)azetidine-2-carboxamide], the EC50 on human TGR5 receptor and on mouse TGR5 receptor was under 0.1 µM each time.

As to `N=C(N)N1CCC(C2CCN(c3cc(N4CC[C@H]4C(=O)NCCc4ccc(C(F)(F)F)cc4)nc(C(F)(F)F)n3)CC2)CC1` [Compound 289, (S)-1-(6-(1′-carbamimidoyl-[4,4′-bipiperidin]-1-yl)-2-(trifluoromethyl)pyrimidin-4-yl)-N-(4-(trifluoromethyl)phenethyl)-azetidine-2-carboxamide], the EC50 on human TGR5 receptor and on mouse TGR5 receptor was under 0.1 µM in each case.

For `CC1(CO)CCN(C(=O)NCCC2CCN(c3cc(N4CCC[C@H]4C(=O)NCCc4ccc(C#N)cc4)nc(C(F)(F)F)n3)CC2)CC1` [Compound 84, (S)-N-(2-(1-(6-(2-((4-cyanophenethyl)carbamoyl)pyrrolidin-1-yl)-2-(trifluoromethyl)pyrimidin-4-yl)piperidin-4-yl)ethyl)-4-(hydroxymethyl)-4-methylpiperidine-1-carboxamide], the EC50 on human TGR5 receptor and at mouse TGR5 receptor was under 0.1 µM throughout.

`N#Cc1ccc(CCNC(=O)[C@@H]2CCCN2c2cc(-c3ccc(CNC(=O)NCCCS(=O)(=O)O)cc3)nc(C(F)(F)F)n2)cc1` [Compound 193, (S)-3-(3-(4-(6-(2-((4-cyanophenethyl)carbamoyl)pyrrolidin-1-yl)-2-(trifluoromethyl)pyrimidin-4-yl)benzyl)ureido)propane-1-sulfonic acid]: the figures for the EC50 on human TGR5 receptor and at mouse TGR5 receptor were 0.1 to 0.999 µM and under 0.1 µM, respectively.

On to `N#Cc1ccc(CCNC(=O)[C@@H]2CCCN2c2cc(-c3ccc(CN4CCNCC4)cc3)nc(C(F)(F)F)n2)cc1` [Compound 187, (S)-N-(4-cyanophenethyl)-1-(6-(4-(piperazin-1-ylmethyl)phenyl)-2-(trifluoromethyl)pyrimidin-4-yl)pyrrolidine-2-carboxamide], for which the EC50 on human TGR5 receptor fell in the range of 1 to 30 µM; at mouse TGR5 receptor, 0.1 to 0.999 µM.

Regarding `O=C(O)CCCC1CCN(c2cc(N3CCC[C@H]3C(=O)NCCc3ccc(Cl)cc3Cl)ncn2)CC1` [Compound 35], the EC50 at human TGR5 receptor lay in the range of 1 to 30 µM; on mouse TGR5 receptor, 0.1 to 0.999 µM.

For `N#Cc1ccc(CCNC(=O)[C@@H]2CCN2c2cc(N3CCN(CCO)CC3)nc(C(F)(F)F)n2)cc1` [Compound 224, (S)-N-(4-cyanophenethyl)-1-(6-(4-(2-hydroxyethyl)piperazin-1-yl)-2-(trifluoromethyl)pyrimidin-4-yl)azetidine-2-carboxamide], the EC50 at human TGR5 receptor was 0.1 to 0.999 µM; at mouse TGR5 receptor it was under 0.1 µM.

`N#Cc1ccc(CCNC(=O)[C@@H]2CCCN2c2cc(C(F)(F)F)cc(N3CCC(CO)CC3)n2)cc1` [Compound 37]: the results for the EC50 on human TGR5 receptor and on mouse TGR5 receptor were 1 to 30 µM and over 30 µM, respectively.

For `N#Cc1ccc(CCNC(=O)[C@@H]2CCCN2c2cc(N3CCC(CCCC(=O)NCCNC(=O)CS(=O)(=O)O)CC3)nc(C(F)(F)F)n2)cc1` [Compound 124, (S)-2-((2-(4-(1-(6-(2-((4-cyanophenethyl)carbamoyl)pyrrolidin-1-yl)-2-(trifluoromethyl)pyrimidin-4-yl)piperidin-4-yl)butanamido)-ethyl)amino)-2-oxoethanesulfonic acid], the EC50 on human TGR5 receptor and at mouse TGR5 receptor was under 0.1 µM in each case.

Regarding `N#Cc1ccc(CCNC(=O)[C@@H]2CCCN2c2cc(-c3ccc(CO)s3)nc(C(F)(F)F)n2)cc1` [Compound 183, (S)-N-(4-cyanophenethyl)-1-(6-(5-(hydroxymethyl)thiophen-2-yl)-2-(trifluoromethyl)pyrimidin-4-yl)pyrrolidine-2-carboxamide], the EC50 at human TGR5 receptor is 0.1 to 0.999 µM; at mouse TGR5 receptor it was under 0.1 µM.

Consider `CN(C)CC(=O)N1CCN(c2cc(N3CCC[C@@H](C(=O)NCCc4ccc(C(F)(F)F)cc4)C3)nc(C(F)(F)F)n2)CC1` [Compound 338, (R)-1-(6-(4-(2-(dimethylamino)-acetyl)piperazin-1-yl)-2-(trifluoromethyl)-pyrimidin-4-yl)-N-(4-(trifluoromethyl)phenethyl)-piperidine-3-carboxamide], for which the EC50 on human TGR5 receptor and at mouse TGR5 receptor was 0.1 to 0.999 µM each time.

As for `O=C(O)CCNC(=O)NCCC1CCN(c2cc(N3C[C@@H](O)C[C@H]3C(=O)NCCc3ccc(C(F)(F)F)cc3)nc(C(F)(F)F)n2)CC1` [Compound 374, 3-(3-(2-(1-(6-((2S,4S)-4-hydroxy-2-((4-(trifluoromethyl)phenethyl)carbamoyl)pyrrolidin-1-yl)-2-(trifluoromethyl)pyrimidin-4-yl)piperidin-4-yl)ethyl)ureido)propanoic acid], the EC50 at human TGR5 receptor and on mouse TGR5 receptor was under 0.1 µM each time.

For `N[C@@H](CCC(=O)NCCCC1CCN(c2cc(N3CCC[C@H]3C(=O)NCCc3ccc(C(F)(F)F)cc3)nc(C(F)(F)F)n2)CC1)C(=O)O` [Compound 77, (S)-2-amino-5-oxo-5-((3-(1-(2-(trifluoromethyl)-6-((S)-2-((4-(trifluoromethyl)phenethyl)carbamoyl)pyrrolidin-1-yl)pyrimidin-4-yl)piperidin-4-yl)propyl)amino)pentanoic acid], the EC50 on human TGR5 receptor and on mouse TGR5 receptor was under 0.1 µM in each case.
